Experiments:
[1] = Compound cytotoxicity, XTT-based colorimetric assay; format: cell-based; settings: human, uninfected MT2 cells
Method in brief: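 CC50 from uninfected MT2 cells run under the antiviral-assay protocol without virus. Viability read on day 4 by XTT colorimetric assay.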

[2] = test system: recombinant NL4-3 virus (nef section replaced with Renilla luciferase gene) in MT-2 cells; experiment: HIV cell culture assay (antiviral activity, luciferase readout); format: cell-based; settings: MT-2 cells infected for 4-5 days with recombinant NL4-3 luciferase virus
Method in brief: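 NL4-3 reporter virus carrying Renilla luciferase in place of part of nef, produced in 293T cells, was used to infect MT-2 cells for 4-5 days with serial compound dilutions. Luciferase activity was read with a live-cell substrate; EC50 derived from the median effect equation.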

SMILES | CC50 at 4 days ([1]; Table 1, day 4, XTT) [nM] | EC50 ([2]; Renilla, NL43, Table 1) [nM] | CC50 at 4 days ([1]; Table 1a, day 4, XTT) [nM] | EC50 ([2]; Renilla, NL43, Table 1a) [nM] | EC50 ([2]; Table 1a) [nM]
CC(C)S(=O)(=O)NC(=O)c1cc(-c2cc3[nH]ncc3nc2[C@H](Cc2cc(F)cc(F)c2)NC(=O)Cn2nc(C(F)F)c3c2C(F)(F)[C@@H]2C[C@H]32)ccc1F [Example 10.27, 5-(5-((S)-1-(2-((3bS,4aR)-3-(difluoromethyl)-5,5-difluoro-3b,4,4a,5-tetrahydro-1H-cyclopropa[3,4]cyclopenta[1,2-c]pyrazol-1-yl)acetamido)-2-(3,5-difluorophenyl)ethyl)-1H-pyrazolo[4,3-b]pyridin-6-yl)-2-fluoro-N-(isopropylsulfonyl)benzamide] | > 10000 | 820 |  |  | 
Cn1nc(NS(C)(=O)=O)c2cccc(-n3c(C(Cc4cc(F)cc(F)c4)NC(=O)Cn4nc(C(F)F)c5c4C(F)(F)[C@@H]4C[C@H]54)nc4ccccc4c3=O)c21 (single isomer, unassigned) [Example 69] |  |  | > 1000 | 78.3 | 
O=C(Cn1nc(C(F)F)c2c1C(F)(F)[C@@H]1C[C@H]21)N[C@@H](Cc1cc(F)cc(F)c1)c1nc2ccccc2nc1-c1ccc(S(=O)(=O)N2CCOCC2)cc1 [Example 156, 2-((3bS,4aR)-3-(difluoromethyl)-5,5-difluoro-3b,4,4a,5-tetrahydro-1H-cyclopropa[3,4]cyclopenta[1,2-c]pyrazol-1-yl)-N—((S)-2-(3,5-difluorophenyl)-1-(3-(4-(morpholinosulfonyl)phenyl)quinoxalin-2-yl)ethyl)acetamide] |  |  | > 10000 | 16.4 | 
Cn1nc(NS(C)(=O)=O)c2c(Cl)ccc(-n3c([C@H](Cc4cc(F)cc(F)c4)NC(=O)Cn4nc(C(F)F)c5c4CCC5)nc4c(F)cc(F)cc4c3=O)c21 (single isomer, unassigned) [Example 99] |  |  | > 1000 |  | 17.8
COc1c(F)ccc2c(=O)n(-c3ccc(Cl)c4c(NS(C)(=O)=O)nn(C)c34)c([C@H](Cc3cc(F)cc(F)c3)NC(=O)Cn3ccc(C4CC4)n3)nc12 (single isomer, unassigned) [Example 111] |  |  | > 1000 |  | 92.6
Cn1nc(NS(C)(=O)=O)c2c(Cl)ccc(-n3c(C(Cc4cc(F)cc(F)c4)NC(=O)Cn4nc(C(F)F)c5c4C(F)(F)[C@@H]4C[C@H]54)nc4nc(C#N)ccc4c3=O)c21 (mixture of isomers) [Example 40.1, N-(1-(3-(4-chloro-1l-methyl-3-(methylsulfonamido)-1H-indazol-7-yl)-7-cyano-4-oxo-3,4-dihydropyrido[2,3-d]pyrimidin-2-yl)-2-(3,5-difluorophenyl)ethyl)-2-((3bS,4aR)-3-(difluoromethyl)-5,5-difluoro-3b,4,4a,5-tetrahydro-1H-cyclopropa[3,4]cyclopenta[1,2-c]pyrazol-1-yl)acetamide] |  |  | > 1000 | 0.58 | 
Cc1c(F)ccc2c(=O)n(-c3ccc(Cl)c4c(NS(C)(=O)=O)nn(C)c34)c([C@H](Cc3cc(F)cc(F)c3)NC(=O)Cn3nc(C(F)F)c4c3C(F)(F)[C@@H]3C[C@H]43)nc12 (single isomer, unassigned) [Example 107] |  |  | > 1000 |  | 27.3
Cn1nc(NS(C)(=O)=O)c2c(Cl)ccc(-n3c([C@H](Cc4cc(F)cc(F)c4)NC(=O)Cn4nc(C(F)F)c5c4CCC5)nc4ncccc4c3=O)c21 (single isomer, unassigned) [Example 46.1] |  |  | > 1000 | 10.3 | 
COc1ccc2c(=O)n(-c3ccc(Cl)c4c(NS(C)(=O)=O)nn(C)c34)c([C@H](Cc3cc(F)cc(F)c3)NC(=O)Cn3ccc(C4CC4)n3)nc2n1 (mixture of isomers) [Example 58.1, N-[(1S)-1-[3-(4-chloro-3-methanesulfonamido-1-methyl-1H-indazol-7-yl)-7-methoxy-4-oxo-3H,4H-pyrido[2,3-d]pyrimidin-2-yl]-2-(3,5-difluorophenyl)ethyl]-2-(3-cyclopropyl-1H-pyrazol-1-yl)acetamide] |  |  | > 1000 |  | 2.26
CC(C)(C)c1ccc2c(=O)n(-c3ccc(Cl)c4c(NS(=O)(=O)C5CC5)nn(CC(F)F)c34)c([C@H](Cc3cc(F)cc(F)c3)NC(=O)Cn3nc(C(F)F)c4c3C(F)(F)[C@@H]3C[C@H]43)nc2c1 [Example 218, N—((S)-1-(7-(tert-Butyl)-3-(4-chloro-3-(cyclopropanesulfonamido)-1-(2,2-difluoroethyl)-1H-indazol-7-yl)-4-oxo-3,4-dihydroquinazolin-2-yl)-2-(3,5-difluorophenyl)ethyl)-2-((3bS,4aR)-3-(difluoromethyl)-5,5-difluoro-3b,4,4a,5-tetrahydro-1H-cyclopropa[3,4]cyclopenta[1,2-c]pyrazol-1-yl)acetamide] |  |  | > 1000 | 0.73 | 
CC1(S(=O)(=O)NC(=O)c2cc(-c3cc4[nH]ncc4nc3[C@H](Cc3cc(F)cc(F)c3)NC(=O)Cn3nc(C(F)F)c4c3C(F)(F)[C@@H]3C[C@H]43)ccc2Cl)CC1 [Example 10.20, 2-Chloro-5-(5-((S)-1-(2-((3bS,4aR)-3-(difluoromethyl)-5,5-difluoro-3b,4,4a,5-tetrahydro-1H-cyclopropa[3,4]cyclopenta[1,2-c]pyrazol-1-yl)acetamido)-2-(3,5-difluorophenyl)ethyl)-1H-pyrazolo[4,3-b]pyridin-6-yl)-N-((1-methylcyclopropyl)sulfonyl)benzamide] | > 10000 | 290 |  |  | 
COc1ccc2c(=O)n(-c3ccc(Cl)c4c(NS(C)(=O)=O)nn(CC(F)F)c34)c(C(Cc3cc(F)cc(F)c3)NC(=O)Cn3nc(C(F)F)c4c3C(F)(F)[C@@H]3C[C@H]43)nc2n1 (single isomer, unassigned) [Example 54.1] |  |  | > 1000 | 43.4 | 
O=C(Cn1nc(C(F)F)c2c1C(F)(F)[C@@H]1C[C@H]21)NC(Cc1cc(F)cc(F)c1)c1nc2cn[nH]c2cc1-c1ccc(C2CC2)cc1 (single isomer, unassigned) [Example 3.11] | 4200 | 670 |  |  | 
Cn1nc(NS(C)(=O)=O)c2c(Cl)ccc(-n3c([C@H](Cc4cc(F)cc(F)c4)NC(=O)Cn4ccc(N)n4)nc4ncccc4c3=O)c21 (single isomer, unassigned) [Example 50.2] |  |  | > 1000 | 32.1 | 
Cn1nc(NS(C)(=O)=O)c2c(Cl)ccc(-c3cc4[nH]cc(Cl)c4nc3C(Cc3cc(F)cc(F)c3)NC(=O)Cn3nc(C(F)F)c4c3C(F)(F)[C@@H]3C[C@H]43)c21 (stereo partly shown) [Example 88] |  |  | > 10000 | 0.61 | 
CS(=O)(=O)Nc1nn(CC(F)(F)F)c2c(-c3cc4[nH]ncc4nc3[C@H](Cc3cc(F)cc(F)c3)NC(=O)Cn3nc(C(F)F)c4c3C(F)(F)[C@@H]3C[C@H]43)ccc(Cl)c12 (single isomer, unassigned) [Example 94] |  |  | > 1000 | 0.146 | 
Cn1nc(NS(C)(=O)=O)c2c(Cl)ccc(-n3c([C@H](Cc4cc(F)cc(F)c4)NC(=O)Cn4ccc(C5CC5)n4)nc4cccc(F)c4c3=O)c21 (single isomer, unassigned) [Example 183] |  |  | > 1000 |  | 21.5
Cn1ccc2nc(C(Cc3cc(F)cc(F)c3)NC(=O)Cn3nc(C(F)F)c4c3C(F)(F)[C@@H]3C[C@H]43)c(-c3ccc(Cl)c4c(NS(C)(=O)=O)nn(C)c34)cc21 (single isomer, unassigned) [Example 117] |  |  | > 10000 | 0.243 | 
COc1ccc2c(=O)n(-c3ccc(Cl)c4c(NS(C)(=O)=O)nn(C)c34)c([C@H](Cc3cc(F)cc(F)c3)NC(=O)Cn3ccc(C4CC4)n3)nc2c1 (single isomer, unassigned) [Example 78] |  |  | > 1000 | 0.478 | 
Cn1nc(NS(C)(=O)=O)c2c(Cl)ccc(-c3cc4[nH]ncc4nc3[C@@H](Cc3cc(F)cc(F)c3)NC(=O)Cn3nc(C(F)F)c4c3C(F)(F)[C@@H]3C[C@H]43)c21 [Example 3.8, N—((R)-1-(6-(4-chloro-1-methyl-3-(methylsulfonamido)-1H-indazol-7-yl)-1H-pyrazolo[4,3-b]pyridin-5-yl)-2-(3,5-difluorophenyl)ethyl)-2-((3bS,4aR)-3-(difluoromethyl)-5,5-difluoro-3b,4,4a,5-tetrahydro-1H-cyclopropa[3,4]cyclopenta[1,2-c]pyrazol-1-yl)acetamide] | 10200 | 21 |  |  | 
Cc1cc(F)c2c(=O)n(-c3ccc(Cl)c4c(NS(C)(=O)=O)nn(C)c34)c(C(Cc3cc(F)cc(F)c3)NC(=O)Cn3nc(C(F)F)c4c3C(F)(F)[C@@H]3C[C@H]43)nc2c1 (mixture of isomers) [Example 171, N—((S)-1-(3-(4-chloro-1-methyl-3-(methylsulfonamido)-1H-indazol-7-yl)-5-fluoro-7-methyl-4-oxo-3,4-dihydroquinazolin-2-yl)-2-(3,5-difluorophenyl)ethyl)-2-((3bS,4aR)-3-(difluoromethyl)-5,5-difluoro-3b,4,4a,5-tetrahydro-1H-cyclopropa[3,4]cyclopenta[1,2-c]pyrazol-1-yl)acetamide] |  |  | > 1000 | 3.96 | 
CC(C)c1ccc(-c2cc3[nH]ncc3nc2C(Cc2cc(F)cc(F)c2)NC(=O)Cn2nc(C(F)F)c3c2C(F)(F)[C@@H]2C[C@H]32)cn1 (single isomer, unassigned) [Example 3.9] | 9600 | 9.9 |  |  | 
Cc1ccc2c(=O)n(-c3ccc(Cl)c4c(NS(C)(=O)=O)nn(C)c34)c(C(Cc3cc(F)cc(F)c3)NC(=O)Cn3nc(C(F)F)c4c3C(F)(F)[C@@H]3C[C@H]43)nc2n1 (mixture of isomers) [Example 41.1] |  |  | > 10000 | 21.2 | 

From patent publication US10954252B1, “Inhibitors of human immunodeficiency virus replication” (ViiV HEALTHCARE UK (NO.5) LIMITED, priority 2017, dated 2021)
